Read-outs that look alike come from different tables or passages of the source.
What was measured:
Test in all cases: Apparent affinity (EC50) of energy transfer probes by titration onto live HEK293 cells expressing kinase/Nluc fusions (Table S1)
Type in all cases: binding
[1] = biological target: full-length kinase/Nluc fusion proteins (Homo sapiens, UniProt Q9BYT3); details: STK33 (NP_001275990), Nluc orientation N; read-out: Probe EC50
[2] = biological target: full-length kinase/Nluc fusion proteins (Homo sapiens, UniProt Q5S007); details: LRRK2, Nluc C; read-out: Probe EC50
[3] = biological target: full-length kinase/Nluc fusion proteins (Homo sapiens, UniProt P11309); details: PIM1, Nluc C; read-out: Probe EC50
[4] = biological target: full-length kinase/Nluc fusion proteins (Homo sapiens, UniProt P45983); details: read-out: Probe EC50
full-length kinase/Nluc fusion proteins (Homo sapiens, UniProt P45983), sequence (P45983 whole entry, the tested form may be a part): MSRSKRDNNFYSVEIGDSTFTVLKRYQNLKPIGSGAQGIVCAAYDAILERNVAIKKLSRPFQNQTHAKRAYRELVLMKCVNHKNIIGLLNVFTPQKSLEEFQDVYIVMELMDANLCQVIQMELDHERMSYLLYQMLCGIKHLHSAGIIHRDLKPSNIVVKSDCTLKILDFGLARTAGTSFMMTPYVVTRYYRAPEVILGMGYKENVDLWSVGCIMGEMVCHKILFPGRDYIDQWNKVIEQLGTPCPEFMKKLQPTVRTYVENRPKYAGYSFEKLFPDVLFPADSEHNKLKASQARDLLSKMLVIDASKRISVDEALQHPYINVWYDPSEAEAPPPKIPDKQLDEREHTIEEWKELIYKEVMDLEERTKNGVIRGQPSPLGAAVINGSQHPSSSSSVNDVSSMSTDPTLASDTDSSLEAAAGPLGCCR

[5] = biological target: full-length kinase/Nluc fusion proteins (Homo sapiens, UniProt Q06418); details: TYRO3 (NP_006284), Nluc orientation C; read-out: Probe EC50
[6] = biological target: full-length kinase/Nluc fusion proteins (Homo sapiens, UniProt P35590); details: TIE1 (NP_005415), Nluc orientation C; read-out: Probe EC50
[7] = biological target: full-length kinase/Nluc fusion proteins (Homo sapiens, UniProt O60674); details: JAK2, Nluc C; read-out: Probe EC50
full-length kinase/Nluc fusion proteins (Homo sapiens, UniProt O60674), sequence (O60674 whole entry, the tested form may be a part): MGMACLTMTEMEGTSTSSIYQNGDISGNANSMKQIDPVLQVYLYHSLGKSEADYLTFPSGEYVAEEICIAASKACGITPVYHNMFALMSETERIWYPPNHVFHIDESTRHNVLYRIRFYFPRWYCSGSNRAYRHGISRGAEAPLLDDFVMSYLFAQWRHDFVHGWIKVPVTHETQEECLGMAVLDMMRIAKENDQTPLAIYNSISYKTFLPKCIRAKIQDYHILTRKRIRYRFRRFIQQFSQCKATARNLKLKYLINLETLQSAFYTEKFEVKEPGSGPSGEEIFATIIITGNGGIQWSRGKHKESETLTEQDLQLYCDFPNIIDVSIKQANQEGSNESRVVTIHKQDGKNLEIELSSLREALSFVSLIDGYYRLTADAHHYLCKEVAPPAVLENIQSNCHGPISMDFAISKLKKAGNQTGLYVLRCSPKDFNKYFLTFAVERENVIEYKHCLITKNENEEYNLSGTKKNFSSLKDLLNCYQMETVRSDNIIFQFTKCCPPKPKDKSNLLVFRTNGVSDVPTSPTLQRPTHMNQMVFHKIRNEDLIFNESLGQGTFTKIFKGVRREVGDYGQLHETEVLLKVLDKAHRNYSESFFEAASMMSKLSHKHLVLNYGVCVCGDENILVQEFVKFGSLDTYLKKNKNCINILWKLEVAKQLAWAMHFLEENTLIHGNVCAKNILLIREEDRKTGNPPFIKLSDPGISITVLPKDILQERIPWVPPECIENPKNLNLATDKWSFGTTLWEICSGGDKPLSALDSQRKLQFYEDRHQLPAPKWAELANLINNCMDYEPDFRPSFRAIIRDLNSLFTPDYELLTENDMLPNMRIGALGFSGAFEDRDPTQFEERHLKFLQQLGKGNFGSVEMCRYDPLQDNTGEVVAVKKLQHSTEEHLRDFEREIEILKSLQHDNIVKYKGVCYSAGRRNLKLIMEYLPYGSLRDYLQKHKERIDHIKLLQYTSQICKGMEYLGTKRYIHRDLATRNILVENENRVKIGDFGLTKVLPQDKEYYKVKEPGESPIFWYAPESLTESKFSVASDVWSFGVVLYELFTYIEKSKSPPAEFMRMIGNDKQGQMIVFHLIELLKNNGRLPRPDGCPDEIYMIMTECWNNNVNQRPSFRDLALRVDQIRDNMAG

[8] = biological target: full-length kinase/Nluc fusion proteins (Homo sapiens, UniProt P06213); details: INSR, Nluc C; read-out: Probe EC50
[9] = biological target: full-length kinase/Nluc fusion proteins (Homo sapiens, UniProt Q13237); details: PRKG2, Nluc C; read-out: Probe EC50
[10] = biological target: full-length kinase/Nluc fusion proteins (Homo sapiens, UniProt Q6P5Z2); details: PKN3, Nluc C; read-out: Probe EC50
[11] = biological target: full-length kinase/Nluc fusion proteins (Homo sapiens, UniProt O60285); details: NUAK1, Nluc N; read-out: Probe EC50
full-length kinase/Nluc fusion proteins (Homo sapiens, UniProt O60285), sequence (O60285 whole entry, the tested form may be a part): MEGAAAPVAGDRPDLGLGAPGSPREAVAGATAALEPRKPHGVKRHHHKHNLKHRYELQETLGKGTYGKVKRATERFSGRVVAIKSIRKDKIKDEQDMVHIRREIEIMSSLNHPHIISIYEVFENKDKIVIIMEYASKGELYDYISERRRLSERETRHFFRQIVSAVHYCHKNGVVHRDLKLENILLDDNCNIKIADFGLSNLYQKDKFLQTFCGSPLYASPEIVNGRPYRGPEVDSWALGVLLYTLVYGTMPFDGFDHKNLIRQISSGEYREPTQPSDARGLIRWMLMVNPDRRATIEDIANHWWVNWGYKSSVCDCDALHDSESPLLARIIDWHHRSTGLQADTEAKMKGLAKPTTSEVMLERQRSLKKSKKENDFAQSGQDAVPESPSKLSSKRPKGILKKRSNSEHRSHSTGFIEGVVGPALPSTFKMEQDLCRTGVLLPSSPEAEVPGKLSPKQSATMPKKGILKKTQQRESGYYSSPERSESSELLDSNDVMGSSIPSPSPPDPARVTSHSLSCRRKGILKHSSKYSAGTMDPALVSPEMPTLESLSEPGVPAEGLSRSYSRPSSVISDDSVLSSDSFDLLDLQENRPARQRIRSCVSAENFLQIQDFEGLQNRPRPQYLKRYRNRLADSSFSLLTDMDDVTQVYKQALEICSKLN

[12] = biological target: full-length kinase/Nluc fusion proteins (Homo sapiens, UniProt O14936); details: CASK, Nluc N; read-out: Probe EC50
[13] = biological target: full-length kinase/Nluc fusion proteins (Homo sapiens, UniProt Q9UQB9); details: AURKC, Nluc C; read-out: Probe EC50
[14] = biological target: full-length kinase/Nluc fusion proteins (Homo sapiens, UniProt P52333); details: JAK3, Nluc C; read-out: Probe EC50
[15] = biological target: full-length kinase/Nluc fusion proteins (Homo sapiens, UniProt Q2M2I8); details: AAK1, Nluc N; read-out: Probe EC50
[16] = biological target: full-length kinase/Nluc fusion proteins (Homo sapiens, UniProt Q08881); details: ITK, Nluc N; read-out: Probe EC50
[17] = biological target: full-length kinase/Nluc fusion proteins (Homo sapiens, UniProt P22455); details: FGFR4, Nluc C; read-out: Probe EC50
[18] = biological target: full-length kinase/Nluc fusion proteins (Homo sapiens, UniProt P19784); details: CSNK2A2, Nluc C; read-out: Probe EC50
[19] = biological target: full-length kinase/Nluc fusion proteins (Homo sapiens, UniProt P30530); details: AXL, Nluc C; read-out: Probe EC50
[20] = biological target: full-length kinase/Nluc fusion proteins (Homo sapiens, UniProt Q15831); details: STK11 (NP_000446), Nluc orientation N; read-out: Probe EC50
[21] = biological target: full-length kinase/Nluc fusion proteins (Homo sapiens, UniProt Q9Y463); details: DYRK1B, Nluc N; read-out: Probe EC50
full-length kinase/Nluc fusion proteins (Homo sapiens, UniProt Q9Y463), sequence (Q9Y463 whole entry, the tested form may be a part): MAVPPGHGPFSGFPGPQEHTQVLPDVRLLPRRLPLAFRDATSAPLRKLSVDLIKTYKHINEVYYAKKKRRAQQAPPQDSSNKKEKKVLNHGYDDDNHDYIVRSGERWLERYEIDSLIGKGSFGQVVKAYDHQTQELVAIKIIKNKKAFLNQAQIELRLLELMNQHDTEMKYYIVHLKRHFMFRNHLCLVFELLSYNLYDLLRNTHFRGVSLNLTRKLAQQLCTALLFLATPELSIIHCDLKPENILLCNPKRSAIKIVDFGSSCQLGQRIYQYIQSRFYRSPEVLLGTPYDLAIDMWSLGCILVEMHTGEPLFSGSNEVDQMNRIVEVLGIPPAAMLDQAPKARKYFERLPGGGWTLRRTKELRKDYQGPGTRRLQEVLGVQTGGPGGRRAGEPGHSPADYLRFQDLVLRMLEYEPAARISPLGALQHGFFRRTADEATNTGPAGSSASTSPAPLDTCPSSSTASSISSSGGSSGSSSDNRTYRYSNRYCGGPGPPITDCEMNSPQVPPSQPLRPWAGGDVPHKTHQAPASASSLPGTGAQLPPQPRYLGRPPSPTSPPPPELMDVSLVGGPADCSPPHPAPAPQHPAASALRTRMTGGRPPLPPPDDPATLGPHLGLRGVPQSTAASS

[22] = biological target: full-length kinase/Nluc fusion proteins (Homo sapiens, UniProt Q12852); details: MAP3K12, Nluc N; read-out: Probe EC50
[23] = biological target: full-length kinase/Nluc fusion proteins (Homo sapiens, UniProt P53667); details: LIMK1, Nluc C; read-out: Probe EC50
[24] = biological target: full-length kinase/Nluc fusion proteins (Homo sapiens, UniProt Q9H0K1); details: SNF1LK2 (NP_056006), Nluc orientation N; read-out: Probe EC50
[25] = biological target: full-length kinase/Nluc fusion proteins (Homo sapiens, UniProt P07947); details: YES1 (NP_005424), Nluc orientation C; read-out: Probe EC50
[26] = biological target: full-length kinase/Nluc fusion proteins (Homo sapiens, UniProt Q15759); details: MAPK11, Nluc N; read-out: Probe EC50
[27] = biological target: full-length kinase/Nluc fusion proteins (Homo sapiens, UniProt Q08345); details: DDR1, Nluc C; read-out: Probe EC50
[28] = biological target: full-length kinase/Nluc fusion proteins (Homo sapiens, UniProt P09619); details: PDGFRB, Nluc C; read-out: Probe EC50
full-length kinase/Nluc fusion proteins (Homo sapiens, UniProt P09619), sequence (P09619 33-1106): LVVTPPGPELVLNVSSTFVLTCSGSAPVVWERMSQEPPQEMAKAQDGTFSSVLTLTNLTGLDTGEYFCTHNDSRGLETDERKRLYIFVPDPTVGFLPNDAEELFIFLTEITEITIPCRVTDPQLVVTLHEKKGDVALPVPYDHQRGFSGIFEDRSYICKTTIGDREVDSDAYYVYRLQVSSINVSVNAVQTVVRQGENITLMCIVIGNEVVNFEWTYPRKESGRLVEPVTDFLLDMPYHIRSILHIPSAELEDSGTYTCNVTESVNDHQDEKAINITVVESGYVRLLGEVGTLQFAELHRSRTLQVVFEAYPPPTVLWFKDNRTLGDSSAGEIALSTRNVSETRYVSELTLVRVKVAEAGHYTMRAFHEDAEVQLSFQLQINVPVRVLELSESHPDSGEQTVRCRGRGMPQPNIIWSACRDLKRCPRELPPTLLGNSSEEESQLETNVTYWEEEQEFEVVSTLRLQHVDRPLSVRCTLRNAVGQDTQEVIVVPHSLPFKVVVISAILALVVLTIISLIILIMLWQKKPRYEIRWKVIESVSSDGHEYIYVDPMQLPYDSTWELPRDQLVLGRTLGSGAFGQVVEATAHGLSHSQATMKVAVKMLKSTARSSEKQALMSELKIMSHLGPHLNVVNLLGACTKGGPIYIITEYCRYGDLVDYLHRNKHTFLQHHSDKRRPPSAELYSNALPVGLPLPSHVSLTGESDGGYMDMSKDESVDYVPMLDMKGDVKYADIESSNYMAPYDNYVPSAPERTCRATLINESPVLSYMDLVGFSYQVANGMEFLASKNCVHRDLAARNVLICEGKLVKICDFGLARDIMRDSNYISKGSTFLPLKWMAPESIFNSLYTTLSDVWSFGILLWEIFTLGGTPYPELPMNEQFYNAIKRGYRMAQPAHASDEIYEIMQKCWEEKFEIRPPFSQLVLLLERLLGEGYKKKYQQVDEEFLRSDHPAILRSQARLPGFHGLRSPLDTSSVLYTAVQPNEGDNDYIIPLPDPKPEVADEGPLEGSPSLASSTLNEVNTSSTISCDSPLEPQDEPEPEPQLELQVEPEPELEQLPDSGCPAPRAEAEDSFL

[29] = biological target: full-length kinase/Nluc fusion proteins (Homo sapiens, UniProt P10721); details: KIT, Nluc C; read-out: Probe EC50
[30] = biological target: full-length kinase/Nluc fusion proteins (Homo sapiens, UniProt P09769); details: FGR, Nluc N; read-out: Probe EC50
[31] = biological target: full-length kinase/Nluc fusion proteins (Homo sapiens, UniProt P42681); details: TXK (NP_003319), Nluc orientation C; read-out: Probe EC50
[32] = biological target: full-length kinase/Nluc fusion proteins (Homo sapiens, UniProt P54753); details: EPHB3, Nluc C; read-out: Probe EC50
full-length kinase/Nluc fusion proteins (Homo sapiens, UniProt P54753), sequence (P54753 34-998): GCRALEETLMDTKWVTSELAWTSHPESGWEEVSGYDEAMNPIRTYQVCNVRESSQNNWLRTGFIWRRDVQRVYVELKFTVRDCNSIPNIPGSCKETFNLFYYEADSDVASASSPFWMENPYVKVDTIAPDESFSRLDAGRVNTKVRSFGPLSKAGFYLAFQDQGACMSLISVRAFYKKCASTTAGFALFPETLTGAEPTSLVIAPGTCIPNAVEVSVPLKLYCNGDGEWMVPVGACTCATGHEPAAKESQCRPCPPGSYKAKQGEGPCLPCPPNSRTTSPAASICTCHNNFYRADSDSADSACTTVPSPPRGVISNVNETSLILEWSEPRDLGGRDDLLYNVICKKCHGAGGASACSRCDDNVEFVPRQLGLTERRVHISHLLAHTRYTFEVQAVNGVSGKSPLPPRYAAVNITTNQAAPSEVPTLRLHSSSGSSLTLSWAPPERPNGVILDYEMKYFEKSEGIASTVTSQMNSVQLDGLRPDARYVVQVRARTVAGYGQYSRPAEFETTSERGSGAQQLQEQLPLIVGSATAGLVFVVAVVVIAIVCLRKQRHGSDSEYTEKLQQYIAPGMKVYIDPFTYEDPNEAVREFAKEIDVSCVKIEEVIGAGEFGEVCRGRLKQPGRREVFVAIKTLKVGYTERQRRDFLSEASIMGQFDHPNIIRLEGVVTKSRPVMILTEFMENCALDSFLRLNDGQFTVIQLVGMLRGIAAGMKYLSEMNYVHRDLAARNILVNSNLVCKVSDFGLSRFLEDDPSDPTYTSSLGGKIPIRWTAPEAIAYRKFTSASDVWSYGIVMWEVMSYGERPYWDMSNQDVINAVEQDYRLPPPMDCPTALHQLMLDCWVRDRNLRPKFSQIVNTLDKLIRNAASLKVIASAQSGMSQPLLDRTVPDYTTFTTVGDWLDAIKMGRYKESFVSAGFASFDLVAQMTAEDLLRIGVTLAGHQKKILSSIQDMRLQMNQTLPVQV

For CNC(=O)c1ccccc1Nc1nc(Nc2ccc(N3CCN(C(=O)CCOCCOCCOCCOCCNC(=O)CCc4ccc5n4[B-](F)(F)[N+]4=C(c6ccc[nH]6)C=CC4=C5)CC3)cc2)ncc1Cl [Energy Transfer Probe 5, 2-((2-((4-(4-(1-amino-3,6,9,12-tetraoxapentadecan-15-oyl)piperazin-1-yl)phenyl)amino)-5-chloropyrimidin-4-yl)amino)-N-methylbenzamide-NanoBRET 590], the EC50 [1] was 400 nM, the EC50 [2] was > 1000 nM and the EC50 [3] was > 1000 nM. For the same compound, the EC50 ([4]; JNK1, Nluc N) was > 1000 nM, the EC50 ([4]; MAPK8, Nluc N) was 300 nM and the EC50 [5] was > 1000 nM. For the same compound, the EC50 [6] was 100 nM, the EC50 [7] was > 1000 nM and the EC50 [8] was > 1000 nM. For the same compound, the EC50 [9] was > 1000 nM, the EC50 [10] was > 1000 nM and the EC50 [11] was 100 nM. The EC50 [12] was > 1000 nM, the EC50 [13] was 20 nM and the EC50 [14] was > 1000 nM. The EC50 [15] was > 1000 nM, the EC50 [16] was 40 nM and the EC50 [17] was > 1000 nM. The EC50 [18] was > 1000 nM, the EC50 [19] was 200 nM and the EC50 [20] was > 1000 nM. The EC50 [21] was > 1000 nM, the EC50 [22] was > 1000 nM and the EC50 [23] was > 1000 nM.

In the case of Cc1nc(Nc2ncc(C(=O)Nc3c(C)cccc3Cl)s2)cc(N2CCN(CCOCCNC(=O)CCc3ccc4n3[B-](F)(F)[N+]3=C(c5ccc[nH]5)C=CC3=C4)CC2)n1 [Energy Transfer Probe 6, 2-((6-(4-(2-(2-aminoethoxy)ethyl)piperazin-1-yl)-2-methylpyrimidin-4-yl)amino)-N-(2-chloro-6-methylphenyl)thiazole-5-carboxamide-NanoBRET 590], the EC50 [24] is reported as 100 nM, the EC50 [25] is reported as 600 nM and the EC50 [26] is reported as 200 nM. For the same compound, the EC50 [27] was 40 nM, the EC50 [28] was 200 nM and the EC50 [29] was 200 nM. It also gave an EC50 [30] of 700 nM, an EC50 [31] of 100 nM and an EC50 [32] of 200 nM.

Source: article PMC5814754, “Quantitative, Wide-Spectrum Kinase Profiling in Live Cells for Assessing the Effect of Cellular ATP on Target Engagement” (Cell Chemical Biology, 2018)
